In patent US20230130066A1, “USE OF CYCLODEXTRINS IN DISEASES AND DISORDERS INVOLVING PHOSPHOLIPID DYSREGULATION” (priority 2017, published 2023):
Several values for one entry are separate records, joined by “and”; a condition that tells them apart may be missing. Equal values may be shown once. Read-outs that look alike come from different tables or passages of the source.

Tests used:
[1] = mice with spinobulbar muscular atrophy (SBMA); cited from earlier work
BBB [2] = conditions: cited from earlier work
BBB [3] = conditions: cited from earlier work; for Transport across BBB: 2 h, 1 mM
Aβ1-40/42 = conditions: rats, stereotactical injection into the hippocampus; cited from earlier work
erythrocytes = conditions: cited from earlier work
transferrin endocytosis = conditions: 10 mM; cited from earlier work
NPC cells = conditions: cited from earlier work
rats [4] = conditions: […] daily; cited from earlier work
rats [5] = conditions: cited from earlier work
human keratinocytes = conditions: cited from earlier work
Caco-2 monolayers = conditions: cited from earlier work; for equally effective concentration on paracellular permeability: after 40 min
Caco-2 cells = conditions: cited from earlier work
[6] = cited from earlier work
MCF-7 cells = assay: Wound healing / gap closure migration assay, MCF-7; format: cell-based, human; conditions: 2 h treatment; for wound closure, replications r1-r3: listed as HPbCD
Experimental: (§1) Cells were cultured in 24-well culture plates (Cytoselect CBA-120, 0.9 mm wound healing/gap closure migration assay) for 24 h with wound healing insert in place.
(§2) Protocol: Warm up the 24-well plate (CBA-120, Cell BioLabs Inc.) with 0.9 mm CytoSelect Wound Healing Inserts at room temperature for 10 minutes. Using sterile forceps, orient the desired number of inserts in the plate wells with their “wound field” aligned in the same direction. Create a cell suspension containing 0.5-1.0×10^6 cells/ml in media containing 10% fetal bovine serum (FBS). Add 500 μL of cell suspension to each well by carefully inserting the pipette tip through the open end at the top of the insert. For optimal cell dispersion, add 250 μL of cell suspension to either side of the open ends at the top of the insert. Incubate cells in a cell culture incubator for 12-24 hours. Carefully remove the insert from the well to begin the wound healing assay. Use sterile forceps to grab and lift the insert slowly from the plate well. Slowly aspirate and discard the media from the wells. Wash wells with media to remove dead cells and debris. Finally, add media to wells to keep cells hydrated. Repeat wash if wells still have debris or unattached cells. When washing is complete, add media with FBS and/or compounds to continue cell culture and wound healing process. Agents that inhibit or stimulate cell migration can be added directly to the wells. Incubate cells in a cell culture incubator (2 hours) and then wash cells with PBS and then add fresh media without compounds. Incubate 12-24 hours before wash and fixing. Remove the fixation solution and add 400 μL of Cell Stain Solution to each well. Allow the stain to incubate with the cells for 15 minutes at room temperature. Aspirate and discard the solution. Carefully wash each stained well 3× with deionized water. Discard washes and allow cells to dry at room temperature. Cells that migrated into the wounded area or protruded from the border of the wound were visualized and photographed under an inverted microscope. Determine the surface area of the defined wound area: Total Surface Area=0.9 mm x length. Determine the surface area of the migrated cells into the wound area: Migrated Cell Surface Area=length of cell migration (mm)×2×length. Percent Closure (%)=Migrated Cell Surface Area/Total Surface Area x 100.

MDA-MB-231 cells = assay: Wound healing / gap closure migration assay, MDA-MB-231; format: cell-based, human; conditions: 2 h treatment; for wound closure, replications r1-r3: listed as HPbCD
Experimental: Published results have shown that β-CD inhibits human MDA-MB 231 cell migration. See Translational Medicine Communications, 1 (1), 3. This inhibition was attributed to the ability of β-CD to “deplete cholesterol”. β-CD, however, depletes also phospholipids.
as §1, §2

[7] = Table 3; cited from earlier work
[8] = cited from earlier work; remark: listed apart in the source
[9] = in vivo; cited from earlier work
rats [10] = conditions: cited from earlier work; remark: listed apart in the source
[11] = cited from earlier work; remark: listed apart in the source
[12] = test system: unesterified cholesterol (UC) storage; conditions: 3-week-old Npc1-/- mice, dorsal neocortex, filipin; cited from earlier work
cats = conditions: doses of 4-8 g/kg; cited from earlier work
[13] = mice, cats, and one human; cited from earlier work
Aβ42 = conditions: SwN2a cells; persistent for 24 h after withdrawal; cited from earlier work
leukemia = leukemia mouse models; cited from earlier work
Tg19959 mice [14] = conditions: four months subcutaneous; cited from earlier work
Tg19959 mice [15] = conditions: four months subcutaneous; cited from earlier work; remark: listed apart in the source
HeLa/TFEB cells = conditions: cited from earlier work
LINCL fibroblasts = conditions: dose- and time-dependent; cited from earlier work
a-syn aggregates = conditions: neuroglioma cells, via autophagy; cited from earlier work
[16] = rats, suppositories containing triglycerides (Witepsol H5); cited from earlier work
membrane cholesterol = conditions: SwN2a cells; cited from earlier work

Molecule: C[C@@]12C[C@@]3(O)O[C@@H](O1)[C@]1(COC(=O)c4ccccc4)[C@H]3C[C@@]12O[C@@H]1O[C@H](CO)[C@@H](O)[C@H](O)[C@H]1O [paeoniflorin]
- disease phenotype [1]: mitigates the disease phenotype

Molecule: OC[C@H]1O[C@@H]2O[C@H]3[C@H](O)[C@@H](O)[C@@H](O[C@H]4[C@H](O)[C@@H](O)[C@@H](O[C@H]5[C@H](O)[C@@H](O)[C@@H](O[C@H]6[C@H](O)[C@@H](O)[C@@H](O[C@H]7[C@H](O)[C@@H](O)[C@@H](O[C@H]8[C@H](O)[C@@H](O)[C@@H](O[C@H]1[C@H](O)[C@H]2O)O[C@@H]8CO)O[C@@H]7CO)O[C@@H]6CO)O[C@@H]5CO)O[C@@H]4CO)O[C@@H]3CO [β-CD, beta-cyclodextrin]
- BBB breakdown (BBB [2]): 2.5 mM
- toxicity on BBB in vitro (BBB [2]): similar
- Transport across BBB (BBB [3]): 26.7%
- Toxicity of Aβ1-40/42 (Aβ1-40/42): reduced
- cholesterol released (erythrocytes; 10 mM): 95%
- extraction of cholesterol (erythrocytes; erythrocytes): most effectively
- reduction of transferrin endocytosis (transferrin endocytosis): 80%
- cholesterol accumulation (NPC cells): can reduce cholesterol accumulation
- deaths, daily doses s.c. (rats [4]): no deaths
- acute i.v. toxicity in rats (rats [5]): 1 g/kg
- apoptotic cell death (human keratinocytes): induces caspase-dependent apoptotic cell death

Molecule: CCCCCCCCCC(=O)O [C10, Capric acid]
- equally effective concentration on paracellular permeability (Caco-2 monolayers): 13 mM

Molecule: OC[C@H]1O[C@@H]2O[C@H]3[C@H](O)[C@@H](O)[C@@H](O[C@H]4[C@H](O)[C@@H](O)[C@@H](O[C@H]5[C@H](O)[C@@H](O)[C@@H](O[C@H]6[C@H](O)[C@@H](O)[C@@H](O[C@H]7[C@H](O)[C@@H](O)[C@@H](O[C@H]8[C@H](O)[C@@H](O)[C@@H](O[C@H]9[C@H](O)[C@@H](O)[C@@H](O[C@H]1[C@H](O)[C@H]2O)O[C@@H]9CO)O[C@@H]8CO)O[C@@H]7CO)O[C@@H]6CO)O[C@@H]5CO)O[C@@H]4CO)O[C@@H]3CO [γ-CD, gamma-cyclodextrin]
- cholesterol accumulation (NPC cells): can reduce cholesterol accumulation

Molecule: maltosyl-α-CD
- cytotoxicity (Caco-2 cells): less cytotoxic than α-CD

Molecule: CN1CCCC1c1cccnc1 (stereo not drawn) [nicotine]
- transported through the BBB (BBB [3]; in vitro, after 2 h of incubation): 96%

Molecule: alendronate-β-CD [ALN-β-CD]
- effect on bone ([6]; rat, in vivo): bone-anabolic

Molecule: 2-hydroxypropyl-β-cyclodextrin [HP-β-CD]
- average wound closure (avg) (MCF-7 cells; MCF-7, 1 mM): 73.33%
- wound closure, replications r1-r3 (MCF-7 cells; MCF-7, 1 mM): 68.00% and 74.00% and 78.00%
- average wound closure (avg) (MCF-7 cells; MCF-7, 2 mM): 48.33%
- wound closure, replications r1-r3 (MCF-7 cells; MCF-7, 2 mM): 41.00% and 48.00% and 56.00%
- average wound closure (avg) (MCF-7 cells; MCF-7, 4 mM): 33.67%
- wound closure, replications r1-r3 (MCF-7 cells; MCF-7, 4 mM): 32.00% and 28.00% and 41.00%
- average wound closure (avg) (MDA-MB-231 cells; MDA-MB-231, 1 mM): 67.67%
- wound closure, replications r1-r3 (MDA-MB-231 cells; MDA-MB-231, 1 mM): 62.00% and 68.00% and 73.00%
- average wound closure (avg) (MDA-MB-231 cells; MDA-MB-231, 2 mM): 56.00%
- wound closure, replications r1-r3 (MDA-MB-231 cells; MDA-MB-231, 2 mM): 48.00% and 59.00% and 61.00%
- average wound closure (avg) (MDA-MB-231 cells; MDA-MB-231, 4 mM): 39.00%
- wound closure, replications r1-r3 (MDA-MB-231 cells; MDA-MB-231, 4 mM): 48.00% and 44.00% and 25.00%
- Solubility in water [7]: >600 mg/mL
- oral absorption in rats [8]: ≤3%
- half-life (t1/2) [9]: 1.7 to 1.9 h
- vol. of distribution (VD) [9]: 0.2 L/kg
- BBB breakdown (BBB [2]): 2.5 mM
- toxicity on BBB in vitro (BBB [2]): similar
- Transport across BBB (BBB [3]): 9.3%
- effect of 1 g/kg in rats (rats [10]): did not cause adverse clinical signs
- tolerability ([11]; children with NPC, doses of up to 1000 mg/kg/d): well tolerated
- side effects ([11]; two children with NPC, about 2500 mg/kg bi-weekly (≈700 mg/kg/d), over a year): no discernable side effects
- UC storage in brain cells [12]: highly effective reduction
- ototoxicity (cats): permanent hearing loss
- ototoxicity [13]: risk of causing permanent hearing loss
- bone mineral density (BMD) ([6]; long-term parenteral administration, 200 mg/kg): decrease bone mineral density
- levels of Aβ42 (Aβ42): dramatically lowered
- survival (leukemia): prolonged survival
- spatial learning and memory deficits (Tg19959 mice [14]): significantly improved
- Aβ plaque deposition (Tg19959 mice [15]): diminished
- tau immunoreactive dystrophic neurites (DN) (Tg19959 mice [15]): reduced
- expression of LC3, SQSTM1/p62 and BECN1 (HeLa/TFEB cells): up-regulated
- ceroid lipopigment (LINCL fibroblasts): clearance of ceroid lipopigment
- a-syn aggregates (a-syn aggregates): promoted clearance
- absorption, administered rectally [16]: 26%
- level of membrane cholesterol (membrane cholesterol): reduced
- acute i.v. toxicity in rats (rats [5]): 10 g/kg
- apoptotic cell death (human keratinocytes; human keratinocytes): not apoptotic

Molecule: CCCCCCCCCCCC(=O)O [C12, lauric acid]
- tight junction morphology (Caco-2 monolayers; Caco-2 monolayers): did not induce detectable changes
- equally effective concentration on paracellular permeability (Caco-2 monolayers): 0.75 mM
